Laboratory results published in patent US20120015907A1, “Furopyridine compounds and uses thereof” (NOVARTIS AG, priority 2010, published 2012).
pIC50: −log10 of the molar value.

Target: T1, HCV polymerase (Hepatitis C virus genotype 1b, UniProt Q9WMX2)
T1 construct: (His)6 (C)
Test: biochemical
Settings: NS5B polymerase IC50 μM, polymerase assay of Biological Example 1

| Compound | IC50 |
| --- | --- |
| CNC(=O)c1c(-c2ccc(C)cc2)oc2nc(N(CCCCP(C)(=O)O)S(C)(=O)=O)c(I)cc12 [Example 23.9999, 4-(N-(5-iodo-3-(methylcarbamoyl)-2-p-tolylfuro[2,3-b]pyridin-6-yl)methylsulfonamido)butyl (methyl)phosphinic acid] | 0.013 µM |

Same assay, conditions: polymerase assay of Biological Example 1; read-out: NS5B polymerase IC50

| Compound | pIC50 |
| --- | --- |
| CNC(=O)c1c(-c2ccc(F)cc2)oc2nc(N(C)S(C)(=O)=O)c(CCCC(N)=O)cc12 [Example 4.3, 5-(4-amino-4-oxobutyl)-2-(4-fluorophenyl)-N-methyl-6-(N-methylmethylsulfonamido)furo[2,3-b]pyridine-3-carboxamide] | 6.88 |
| CCc1cc2c(C(=O)NC)c(-c3ccc(F)cc3)oc2nc1N(CCCCC(C)(C)O)S(C)(=O)=O [Example 22.97, 5-ethyl-2-(4-fluorophenyl)-6-(N-(5-hydroxy-5-methylhexyl)methylsulfonamido)-N-methylfuro[2,3-b]pyridine-3-carboxamide] | 7.34 |
| CCc1cc2c(C(=O)NC)c(-c3ccc(F)cc3)oc2nc1N(CCOc1ccccc1C(=O)OC)S(C)(=O)=O [Example 22.5, methyl 2-(2-(N-(5-ethyl-2-(4-fluorophenyl)-3-(methylcarbamoyl)furo[2,3-b]pyridin-6-yl)methylsulfonamido)ethoxy)benzoate] | 7.08 |
| CNC(=O)c1c(-c2ccc(F)cc2)oc2nc(N(C)S(C)(=O)=O)c(C(C)(F)F)cc12 [Example 8, 5-(1,1-difluoroethyl)-2-(4-fluorophenyl)-N-methyl-6-(N-methylmethylsulfonamido)furo[2,3-b]pyridine-3-carboxamide] | 6.90 |
| CCc1cc2c(C(=O)NC)c(-c3ccc(F)cc3)oc2nc1N(CCCN1CCN(C)C1=O)S(C)(=O)=O [Example 21.94, 5-ethyl-2-(4-fluorophenyl)-N-methyl-6-(N-(3-(3-methyl-2-oxoimidazolidin-1-yl)propyl)methylsulfonamido)furo[2,3-b]pyridine-3-carboxamide] | 7.11 |
| CNC(=O)c1c(-c2ccc(F)cc2)oc2nc(N(CCCC#N)S(C)(=O)=O)c(I)cc12 [Example 18.2, 6-(N-(3-cyanopropyl)methylsulfonamido)-2-(4-fluorophenyl)-5-iodo-N-methylfuro[2,3-b]pyridine-3-carboxamide] | 7.21 |
| CCc1cc2c(C(=O)NC)c(-c3ccc(F)cc3)oc2nc1N(CCOc1ccccc1C#N)S(C)(=O)=O [Example 21.95, 6-(N-(2-(2-cyanophenoxy)ethyl)methylsulfonamido)-5-ethyl-2-(4-fluorophenyl)-N-methylfuro[2,3-b]pyridine-3-carboxamide] | 6.92 |
| CCc1cc2c(C(=O)NC)c(-c3ccc(F)cc3)oc2nc1N(CCN(C)S(=O)(=O)c1ccccc1)S(C)(=O)=O [Example 22.995, 5-ethyl-2-(4-fluorophenyl)-N-methyl-6-(N-(2-(N-methylphenylsulfonamido)ethyl)methylsulfonamido)furo[2,3-b]pyridine-3-carboxamide] | 7.62 |
| CNC(=O)c1c(-c2ccc(C)cc2)oc2nc(N(CCC[C@H](C)C(=O)O)S(C)(=O)=O)c(C3CC3)cc12 [Example 47, (S)-5-(N-(5-cyclopropyl-3-(methylcarbamoyl)-2-p-tolylfuro[2,3-b]pyridin-6-yl)methylsulfonamido)-2-methylpentanoic acid] | 8.70 |

Further lines, results first:

| pIC50 | Compound |
| --- | --- |
| 8.52 | CNC(=O)c1c(-c2ccc(C)cc2)oc2nc(N(CCCCCBr)S(C)(=O)=O)c(C3CC3)cc12 [Example 29.998, 6-(N-(5-bromopentyl)methylsulfonamido)-5-cyclopropyl-N-methyl-2-p-tolylfuro[2,3-b]pyridine-3-carboxamide] |
| 8.52 | CNC(=O)c1c(-c2ccc(C)cc2)oc2nc(N(CCCC3(C(=O)O)CCOCC3)S(C)(=O)=O)c(C3CC3)cc12 [Example 28.4, 4-(3-(N-(5-cyclopropyl-3-(methylcarbamoyl)-2-p-tolylfuro[2,3-b]pyridin-6-yl)methylsulfonamido)propyl)tetrahydro-2H-pyran-4-carboxylic acid] |
| 7.54 | CCc1cc2c(C(=O)NC)c(-c3ccc(F)cc3)oc2nc1N(CCCC1=C(O)CCC1=O)S(C)(=O)=O [Example 23.95, 5-ethyl-2-(4-fluorophenyl)-6-(N-(3-(2-hydroxy-5-oxocyclopent-1-enyl)propyl)methylsulfonamido)-N-methylfuro[2,3-b]pyridine-3-carboxamide] |
| 7.03 | CCc1cc2c(C(=O)NC)c(-c3ccc(F)cc3)oc2nc1N(CCCNS(=O)(=O)c1ccccc1)S(C)(=O)=O [23.6] |
| 8.30 | CNC(=O)c1c(-c2ccc(C)cc2)oc2nc(N(CCCC3(C(=O)O)COC3)S(C)(=O)=O)c(C3CC3)cc12 [Example 29.96, 3-(3-(N-(5-cyclopropyl-3-(methylcarbamoyl)-2-p-tolylfuro[2,3-b]pyridin-6-yl)methylsulfonamido)propyl) oxetane-3-carboxylic acid] |
| 8.30 | CNC(=O)c1c(-c2ccc(C)cc2)oc2nc(N(CCCN3CCCC3=O)S(C)(=O)=O)c(C3CC3)cc12 [Example 23.999997, 5-cyclopropyl-N-methyl-6-(N-(3-(2-oxopyrrolidin-1-yl)propyl)methylsulfonamido)-2-p-tolylfuro[2,3-b] pyridine-3-carboxamide] |
| 7.24 | CCc1cc2c(C(=O)NC)c(-c3ccc(F)cc3)oc2nc1N(CCCN(C)S(C)(=O)=O)S(C)(=O)=O [Example 23.3, 5-ethyl-2-(4-fluorophenyl)-N-methyl-6-(N-(3-(N-methylmethylsulfonamido)propyl)methylsulfonamido) furo[2,3-b]pyridine-3-carboxamide] |
| 8.52 | CNC(=O)c1c(-c2ccc(C)cc2)oc2nc(N(CCC[C@@H](C)C(=O)O)S(C)(=O)=O)c(C3CC3)cc12 [Example 47.3, (R)-5-(N-(5-cyclopropyl-3-(methylcarbamoyl)-2-p-tolylfuro[2,3-b]pyridin-6-yl)methylsulfonamido)-2-methylpentanoic acid] |
| 8.40 | CNC(=O)c1c(-c2ccc(C)cc2)oc2nc(N(CCCCCCCC(=O)O)S(C)(=O)=O)c(C3CC3)cc12 [Example 29.991, 8-(N-(5-cyclopropyl-3-(methylcarbamoyl)-2-p-tolylfuro[2,3-b]pyridin-6-yl)methylsulfonamido) octanoic acid] |
| 6.62 | CNC(=O)c1c(-c2ccc(F)cc2)oc2nc(N(CCN(C)S(C)(=O)=O)S(C)(=O)=O)c(I)cc12 [Example 23.996, 2-(4-fluorophenyl)-5-iodo-N-methyl-6-(N-(2-(N-methylmethylsulfonamido)ethyl)methylsulfonamido) furo[2,3-b]pyridine-3-carboxamide] |
| 7.17 | CCc1cc2c(C(=O)NC)c(-c3ccc(F)cc3)oc2nc1N(CCCS(=O)(=O)CC)S(C)(=O)=O [Example 23.992, 5-ethyl-6-(N-(3-(ethylsulfonyl)propyl)methylsulfonamido)-2-(4-fluorophenyl)-N-methylfuro[2,3-b] pyridine-3-carboxamide] |
| 7.70 | CNC(=O)c1c(-c2ccc(C)cc2)oc2nc(N(CCOCCC(CCOC)C(=O)O)S(C)(=O)=O)c(C3CC3)cc12 (stereo not shown) [Example 23.999999, 4-{2-[(5-Cyclopropyl-3-methylcarbamoyl-2-p-tolyl-furo[2,3-b]pyridin-6-yl)-methanesulfonyl-amino]-ethoxy}-2-(2-methoxy-ethyl)-butyric acid] |
